Data taken from publication PMC7827014, “Synthetic Transition from Thiourea-Based Compounds to Tetrazole Derivatives: Structure and Biological Evaluation of Synthesized New N-(Furan-2-ylmethyl)-1H-tetrazol-5-amine Derivatives” (Molecules, 2021).
pIC50: −log10 of the molar value. Converted amounts (≈) assume the structure as drawn. Read-outs that look alike come from different tables or passages of the source.

Key:
[1] = tested on: S. aureus NCTC 4163; assay: MIC microdilution, standard strain; type: cell-based; conditions: Staphylococcus aureus, NCTC4163; S. aureus NCTC 4163, 18 h, 35 °C; read-out: MIC
[2] = tested on: S. aureus ATCC 29213; assay: MIC microdilution, standard strain; type: cell-based; conditions: Staphylococcus aureus, ATCC29213; S. aureus ATCC 29213, 18 h, 35 °C; read-out: MIC
[3] = tested on: S. epidermidis ATCC 12228; assay: MIC microdilution, standard strain; type: cell-based; conditions: Staphylococcus epidermidis, ATCC12228; S. epidermidis ATCC 12228, 18 h, 35 °C; read-out: MIC
[4] = tested on: E. hirae ATCC 10541; assay: MIC microdilution, standard strain; type: cell-based; conditions: Enterococcus hirae, ATCC10541; E. hirae ATCC 10541, 18 h, 35 °C; read-out: MIC
[5] = tested on: E. coli ATCC 25922; assay: MIC microdilution, standard strain; type: cell-based; conditions: Escherichia coli, ATCC25922; E. coli ATCC 25922, 18 h, 35 °C; read-out: MIC
[6] = tested on: E. coli NCTC 8196; assay: MIC microdilution, standard strain; type: cell-based; conditions: Escherichia coli, NCTC8196; E. coli NCTC 8196, 18 h, 35 °C; read-out: MIC
[7] = tested on: S. epidermidis KR 4047 825/19; assay: MIC microdilution, clinical isolate; type: cell-based
[8] = tested on: S. epidermidis KR 4243 829/19; assay: MIC microdilution, clinical isolate; type: cell-based; conditions: Staphylococcus epidermidis, KR4243829/19
[9] = tested on: S. epidermidis KR 4268 830/19; assay: MIC microdilution, clinical isolate; type: cell-based; conditions: Staphylococcus epidermidis, KR4268830/19
[10] = tested on: S. epidermidis KR 4313 834/19; assay: MIC microdilution, clinical isolate; type: cell-based; conditions: Staphylococcus epidermidis, KR4313834/19
[11] = tested on: S. epidermidis KR 4358/2 840/19; assay: MIC microdilution, clinical isolate; type: cell-based; conditions: Staphylococcus epidermidis, KR4358/2840/19
[12] = tested on: S. epidermidis T 5253 845/19; assay: MIC microdilution, clinical isolate; type: cell-based; conditions: Staphylococcus epidermidis, T5253845/19
[13] = tested on: S. epidermidis T 5399 848/19; assay: MIC microdilution, clinical isolate; type: cell-based; conditions: Staphylococcus epidermidis, T5399848/19
[14] = tested on: S. epidermidis T 5501 851/19; assay: MIC microdilution, clinical isolate; type: cell-based; conditions: Staphylococcus epidermidis, T5501851/19
[15] = tested on: S. aureus T5384/48; assay: MIC microdilution, clinical isolate; type: cell-based; conditions: Staphylococcus aureus
[16] = tested on: S. aureus 203/19; assay: MIC microdilution, clinical isolate; type: cell-based; conditions: Staphylococcus aureus
[17] = tested on: S. aureus T5403/51; assay: MIC microdilution, clinical isolate; type: cell-based; conditions: Staphylococcus aureus
[18] = tested on: S. aureus 176/13; assay: MIC microdilution, clinical isolate; type: cell-based; conditions: Staphylococcus aureus
[19] = tested on: S. aureus T5241/46; assay: MIC microdilution, clinical isolate; type: cell-based; conditions: Staphylococcus aureus
[20] = tested on: S. aureus 155/6; assay: MIC microdilution, clinical isolate; type: cell-based; conditions: Staphylococcus aureus
[21] = tested on: S. aureus T5591/68; assay: MIC microdilution, clinical isolate; type: cell-based; conditions: Staphylococcus aureus
[22] = tested on: S. aureus T5595/69; assay: MIC microdilution, clinical isolate; type: cell-based; conditions: Staphylococcus aureus
[23] = tested on: M. tuberculosis H37Rv; assay: In vitro antitubercular MIC; type: cell-based; conditions: Mycobacterium tuberculosis, read-out: Minimal inhibitory concentration
[24] = tested on: M. tuberculosis INH susceptible (Spec. 192); assay: In vitro antitubercular MIC; type: cell-based; conditions: Mycobacterium tuberculosis, read-out: Minimal inhibitory concentration
[25] = tested on: Caco-2; assay: MTT assay 72 h; type: cell-based; conditions: Homo sapiens; Caco-2, MTT 72 h, mean ± SD; read-out: IC50
Method: (§1) The cell viability was assessed by using an enzymatic conversion of 3-(4,5-dimethylthiazol-2-yl)-2,5-diphenyltetrazolium bromide salt (MTT) to insoluble formazan crystals by mitochondrial dehydrogenases, occurring in living cells. Cells were cultured in 96-well plates at a density of l × 10^4 cells per well, and cultured to adhere for 24 h at 37 °C in a CO2 incubator. After 24 h of incubation, culture medium was replaced with a fresh medium, then cells were treated with various concentrations of the compounds and incubated for 72 h at 37 °C in a CO2 incubator. Untreated cells were used as the control. Subsequently, MTT solution (0,5 mg/mL in free-serum medium) was added, and samples were incubated for 4 h at 37 °C in a CO2 incubator. Then, the medium was aspirated, and formed formazan crystals were solubilized by adding an isopropanol-DMSO mixture (1:1 vol). The intensity of the dissolved crystals was measured using a UVM 340 reader (ASYS Hitech GmbH, Austria), at a wavelength of 570 nm. Cell viability was presented as a percent of MTT reduced in treated cells versus control cells (incubated without tested compounds). The relative MTT level (%) was calculated as [A]/[B]×100, where [A] is the absorbance of the test sample, and [B] is the absorbance of the control sample containing the untreated cells. The IC50 value was estimated using CalcuSyn version 1.0. […]
(§2) Antiproliferative activity of tested compounds. Data are given as IC50 [µM] and SI.
(§3) Human immortal keratinocyte cell line from adult human skin (HaCaT), Human colorectal adenocarcinoma (CaCo-2), Human epithelial lung carcinoma cell line (A549) and Human melanoma cell line (HTB-140). Data are expressed as mean ± SD. The SI (Selectivity Index) was calculated for each compound using formula: SI = IC50 for normal cel line / IC50 cancer cel line.

[26] = tested on: A549; assay: MTT assay 72 h; type: cell-based, human; conditions: Homo sapiens; A549, MTT 72 h, mean ± SD; read-out: IC50
Method: as §1, §2, §3

[27] = tested on: HTB-140; assay: MTT assay 72 h; type: cell-based, human; conditions: Homo sapiens; HTB-140, MTT 72 h, mean ± SD
Method: as §1, §2, §3

[28] = tested on: HaCaT; assay: MTT assay 72 h; type: cell-based, human; conditions: Homo sapiens; HaCaT normal cells, MTT 72 h, mean ± SD; read-out: IC50
Method: as §1, §2, §3

[29] = tested on: standard bacterial strains; assay: MIC, panel of standard bacterial strains; type: cell-based
Method: (§4) Compounds were screened for their minimal inhibitory concentrations (MICs).
(§5) The antimicrobial assays were conducted using reference strains of bacteria derived from international microbe collections—American Type Culture Collection (ATCC) and National Collection of Type Culture (NCTC). […] The antimicrobial activity of compounds was expressed by minimum inhibitory concentration values (MICs), according to CLCI reference procedures with some modifications. MIC was tested by the two-fold serial microdilution method (in 96-well microtiter plates) on MH II liquid medium. […] The stock solution of tested compounds was prepared in DMSO, and diluted in sterile medium (to a maximum of 1% of solvent content). […] Clinical microorganisms used in this study were obtained from the collection of the Department of Pharmaceutical Microbiology, Medical University of Warsaw, Poland.

[30] = tested on: hospital staphylococcal isolates; assay: MIC, panel of clinical staphylococcal isolates; type: cell-based
Method: as §4, §5

Structure (SMILES): Fc1ccccc1-n1nnnc1NCc1ccco1 [Compound 6, 1-(2-fluorophenyl)-N-(furan-2-ylmethyl)-1H-tetrazol-5-amine]
- MIC [1]: 8 µg/mL (≈ 30.9 µM)
- MIC [2]: 8 µg/mL (≈ 30.9 µM)
- MIC [3]: 32 µg/mL (≈ 123 µM)
- MIC [4]: 16 µg/mL (≈ 61.7 µM)
- MIC [5]: 16 µg/mL (≈ 61.7 µM)
- MIC [6]: 512 µg/mL (≈ 1970 µM)
- strength relative to Ciprofloxacin ([7]; S. epidermidis KR 4047 825/19 isolate): half of the Ciprofloxacin strength
- MIC ([7]; Staphylococcus epidermidis, KR4047825/19, clinical isolate S. epidermidis KR 4047 825/19): 8 µg/mL (≈ 30.9 µM)
- MIC [8]: 4 µg/mL (≈ 15.4 µM)
- MIC [9]: 8 µg/mL (≈ 30.9 µM)
- MIC [10]: 4 µg/mL (≈ 15.4 µM)
- MIC [11]: 4 µg/mL (≈ 15.4 µM)
- MIC [12]: 8 µg/mL (≈ 30.9 µM)
- MIC [13]: 4 µg/mL (≈ 15.4 µM)
- MIC [14]: 2 µg/mL (≈ 7.71 µM)
- MIC [15]: 8 µg/mL (≈ 30.9 µM)
- MIC [16]: 8 µg/mL (≈ 30.9 µM)
- MIC [17]: 8 µg/mL (≈ 30.9 µM)
- MIC [18]: 8 µg/mL (≈ 30.9 µM)
- MIC [19]: 8 µg/mL (≈ 30.9 µM)
- MIC [20]: 16 µg/mL (≈ 61.7 µM)
- MIC [21]: 8 µg/mL (≈ 30.9 µM)
- MIC [22]: 8 µg/mL (≈ 30.9 µM)
- MIC [23]: 512 µg/mL (≈ 1970 µM)
- MIC [24]: 512 µg/mL (≈ 1970 µM)
- pIC50 [25]: < 4.00
- pIC50 [26]: < 4.00
- pIC50 [27]: < 4.00
- pIC50 [28]: < 4.00
- MIC ([29]; some Gram-negative strains): 16 µg/mL (≈ 61.7 µM)
- MIC (range) ([29]; standard Staphylococci): 8 to 32 µg/mL
- MIC ([30]; Staphylococcus aureus, rest of studied Staphylococci, except S. aureus 155/6, read-out: MICs): 8 µg/mL (≈ 30.9 µM)
- MIC ([30]; Staphylococcus epidermidis, four hospital S. epidermidis isolates, read-out: MIC): 4 µg/mL (≈ 15.4 µM)
- growth inhibitory strength relative to Ciprofloxacin ([30]; two clinical S. epidermidis strains): 8–16 fold
